# ChEMBL document CHEMBL1147177, “Identification of tyrosinase inhibitors from Marrubium velutinum and Marrubium cylleneum” (Bioorg Med Chem, 2007)
# Tests used:
# [1] = target: T1, Tyrosinase (Agaricus bisporus) (UniProt O42713); experiment: Inhibition of diphenolase activity of mushroom tyrosinase at 0.049 mM
# T1 sequence (whole entry): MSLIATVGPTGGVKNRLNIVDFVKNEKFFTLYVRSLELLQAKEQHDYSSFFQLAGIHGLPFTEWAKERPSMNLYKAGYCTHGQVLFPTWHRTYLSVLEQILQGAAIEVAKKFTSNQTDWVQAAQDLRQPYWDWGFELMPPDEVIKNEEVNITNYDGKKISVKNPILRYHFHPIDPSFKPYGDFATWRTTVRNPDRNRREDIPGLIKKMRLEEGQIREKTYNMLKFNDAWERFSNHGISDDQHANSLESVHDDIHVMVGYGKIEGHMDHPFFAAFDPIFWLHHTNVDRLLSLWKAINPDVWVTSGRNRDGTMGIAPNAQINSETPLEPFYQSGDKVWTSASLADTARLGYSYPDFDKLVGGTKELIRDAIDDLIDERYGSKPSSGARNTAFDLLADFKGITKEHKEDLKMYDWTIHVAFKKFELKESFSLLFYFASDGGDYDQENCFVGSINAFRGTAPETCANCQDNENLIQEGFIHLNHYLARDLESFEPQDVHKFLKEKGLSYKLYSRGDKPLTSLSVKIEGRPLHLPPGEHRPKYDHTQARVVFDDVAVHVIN
# [2] = target: T1, Tyrosinase (Agaricus bisporus); experiment: Inhibition of diphenolase activity of mushroom tyrosinase at 0.053 mM
# [3] = target: T1, Tyrosinase (Agaricus bisporus); experiment: Inhibition of diphenolase activity of mushroom tyrosinase at 0.055 mM
# [4] = target: T1, Tyrosinase (Agaricus bisporus); experiment: Inhibition of diphenolase activity of mushroom tyrosinase at 0.035 mM
# [5] = target: T1, Tyrosinase (Agaricus bisporus); experiment: Inhibition of diphenolase activity of mushroom tyrosinase at 0.093 mM
# [6] = target: T1, Tyrosinase (Agaricus bisporus); experiment: Inhibition of diphenolase activity of mushroom tyrosinase at 0.064 mM
# [7] = target: T1, Tyrosinase (Agaricus bisporus); experiment: Inhibition of diphenolase activity of mushroom tyrosinase at 0.070 mM
# [8] = target: T1, Tyrosinase (Agaricus bisporus); experiment: Inhibition of diphenolase activity of mushroom tyrosinase at 0.056 mM
# [9] = target: T1, Tyrosinase (Agaricus bisporus); experiment: Inhibition of diphenolase activity of mushroom tyrosinase at 0.011 mM
# [10] = target: T1, Tyrosinase (Agaricus bisporus); experiment: Inhibition of diphenolase activity of mushroom tyrosinase at 0.050 mM
# [11] = target: T1, Tyrosinase (Agaricus bisporus); experiment: Inhibition of diphenolase activity of mushroom tyrosinase at 0.036 mM
# [12] = target: T1, Tyrosinase (Agaricus bisporus); experiment: Inhibition of diphenolase activity of mushroom tyrosinase at 0.041 mM
# [13] = target: T1, Tyrosinase (Agaricus bisporus); experiment: Inhibition of diphenolase activity of mushroom tyrosinase at 0.051 mM
# [14] = target: T1, Tyrosinase (Agaricus bisporus); experiment: Inhibition of diphenolase activity of mushroom tyrosinase at 0.044 mM
# [15] = target: T1, Tyrosinase (Agaricus bisporus); experiment: Inhibition of diphenolase activity of mushroom tyrosinase at 0.042 mM
# [16] = target: T1, Tyrosinase (Agaricus bisporus); experiment: Inhibition of diphenolase activity of mushroom tyrosinase at 0.074 mM
# [17] = target: T1, Tyrosinase (Agaricus bisporus); experiment: Inhibition of diphenolase activity of mushroom tyrosinase at 0.231 mM
# [18] = target: T1, Tyrosinase (Agaricus bisporus); experiment: Inhibition of diphenolase activity of mushroom tyrosinase at 0.052 mM
# [19] = target: T1, Tyrosinase (Agaricus bisporus); experiment: Inhibition of diphenolase activity of mushroom tyrosinase at 0.034 mM
# [20] = target: T1, Tyrosinase (Agaricus bisporus); experiment: Inhibition of diphenolase activity of mushroom tyrosinase at 0.083 mM
smiles,measurement,setting,value
COc1cc(C[C@@H]2CO[C@@H](c3ccc(O[C@H]4O[C@@H](CO)[C@H](O)[C@@H](O)[C@@H]4O)c(OC)c3)[C@@H]2CO)ccc1O[C@H]1O[C@@H](CO)[C@H](O)[C@@H](O)[C@@H]1O,inhibition,[1],11.1%
COc1cc(-c2oc3cc(O)cc(O)c3c(=O)c2O[C@@H]2O[C@H](COC(=O)/C=C/c3ccc(O)cc3)[C@@H](O)[C@H](O)[C@H]2O)ccc1O,inhibition,[2],21.1%
O=C(/C=C/c1ccc(O)cc1)OC[C@H]1O[C@@H](Oc2c(-c3ccc(O)c(O)c3)oc3cc(O)cc(O)c3c2=O)[C@H](O)[C@@H](O)[C@@H]1O,inhibition,[3],21.9%
COc1ccc(CCO[C@@H]2O[C@H](CO[C@@H]3O[C@H](CO)[C@@H](O)[C@H](O)[C@H]3O)[C@@H](OC(=O)/C=C/c3ccc(O)c(OC)c3)[C@H](O[C@@H]3O[C@@H](C)[C@H](O)[C@@H](O)[C@H]3O[C@@H]3OC[C@@H](O)[C@@H](O)[C@@H]3O)[C@H]2O)cc1O,inhibition,[4],13.2%
O=c1cc(-c2ccc(O)cc2)oc2cc(O)cc(O)c12,inhibition,[5],14%
COc1cc(-c2oc3cc(O)cc(O)c3c(=O)c2O[C@@H]2O[C@H](COC(C)=O)[C@@H](O)[C@H](O)[C@H]2O)ccc1O,inhibition,[6],23.3%
C[C@H]1O[C@H](OC[C@H]2O[C@@H](Oc3c(-c4ccc(O)cc4)oc4cc(O)c(O)c(O)c4c3=O)[C@H](O)[C@@H](O)[C@@H]2O)[C@@H](O)[C@@H](O)[C@@H]1O,inhibition,[3],27.1%
COc1ccc(-c2cc(=O)c3c(O)c(O)c(OC)cc3o2)cc1,inhibition,[2],2.78%
COc1cc(-c2oc3cc(O)cc(O)c3c(=O)c2O[C@@H]2O[C@H](CO[C@@H]3O[C@@H](C)[C@H](O)[C@@H](O)[C@H]3O)[C@@H](O)[C@H](O)[C@H]2O)ccc1O,inhibition,[2],13.1%
COc1cc(-c2oc3cc(O)cc(O)c3c(=O)c2O[C@@H]2O[C@H](CO)[C@@H](O)[C@H](O)[C@H]2O)ccc1O,inhibition,[7],24.2%
O=C(/C=C/c1ccc(O)cc1)OC[C@H]1O[C@@H](Oc2c(-c3ccc(O)cc3)oc3cc(O)cc(O)c3c2=O)[C@H](O)[C@@H](O)[C@@H]1O,inhibition,[8],30.2%
same,inhibition,[9],14.7%
C[C@@H]1O[C@@H](OC[C@H]2O[C@@H](Oc3c(-c4ccc(O)c(O)c4)oc4cc(O)cc(O)c4c3=O)[C@H](O)[C@@H](O)[C@@H]2O)[C@H](O)[C@H](O)[C@H]1O,inhibition,[3],12.7%
COc1ccc(-c2cc(=O)c3c(OC)c(O)c(OC)cc3o2)cc1,inhibition,[10],4.24%
COc1cc(/C=C/C(=O)O[C@H]2[C@H](O[C@@H]3O[C@@H](C)[C@H](O)[C@@H](O)[C@H]3O[C@@H]3OC[C@@H](O)[C@@H](O)[C@@H]3O)[C@@H](O)[C@H](OCCc3ccc(O)c(O)c3)O[C@@H]2CO[C@@H]2O[C@H](CO)[C@@H](O)[C@H](O)[C@H]2O)ccc1O,inhibition,[11],15.5%
O=C(O)/C=C/c1ccc(O)cc1,inhibition,[12],8.87%
O=C(O)CC(OC(=O)/C=C/c1ccc(O)c(O)c1)C(=O)O (stereo unspecified),inhibition,[8],4.62%
COc1cc(/C=C/C(=O)O[C@H]2[C@H](O[C@@H]3O[C@@H](C)[C@H](O)[C@@H](O)[C@H]3O)[C@@H](O)[C@H](OCCc3ccc(O)c(O)c3)O[C@@H]2CO)ccc1O,inhibition,[13],21.6%
C[C@@H]1O[C@@H](O[C@@H]2[C@@H](O)[C@H](OCCc3ccc(O)c(O)c3)O[C@H](CO)[C@H]2OC(=O)/C=C/c2ccc(O)c(O)c2)[C@H](O[C@@H]2OC[C@@H](O)[C@@H](O)[C@@H]2O)[C@H](O)[C@H]1O,inhibition,[14],12%
C[C@H]1O[C@H](O[C@@H]2[C@@H](O)[C@H](OCCc3ccc(O)c(O)c3)O[C@H](CO[C@H]3O[C@@H](CO)[C@H](O)[C@@H](O)[C@@H]3O)[C@H]2OC(=O)/C=C/c2ccc(O)c(O)c2)[C@@H](O)[C@@H](O)[C@@H]1O,inhibition,[15],17.5%
COc1cc(C[C@@H]2CO[C@@H](c3ccc(O[C@H]4O[C@@H](CO)[C@H](O)[C@@H](O)[C@@H]4O)c(OC)c3)[C@@H]2CO)ccc1O,inhibition,[6],17.7%
O=C(/C=C/c1ccc(O)c(O)c1)O[C@@H]1C[C@](O)(C(=O)O)C[C@@H](O)[C@H]1O,inhibition,[1],7.78%
COc1ccc(CCO[C@@H]2O[C@H](CO[C@H]3O[C@@H](CO)[C@H](O)[C@@H](O)[C@@H]3O)[C@@H](OC(=O)/C=C/c3ccc(O)c(OC)c3)[C@H](O[C@H]3O[C@H](C)[C@@H](O)[C@H](O)[C@@H]3O)[C@H]2O)cc1O,inhibition,[12],22.6%
O=c1c(O[C@@H]2O[C@H](CO)[C@@H](O)[C@H](O)[C@H]2O)c(-c2ccc(O)cc2)oc2cc(O)cc(O)c12,inhibition,[16],24.2%
C[N+]1(C)CCC[C@@H]1C(=O)[O-],inhibition,[17],11.1%
COc1cc([C@@H]2OC[C@@H](Cc3ccc(O[C@H]4O[C@@H](CO)[C@H](O)[C@@H](O)[C@@H]4O)c(OC)c3)[C@H]2CO)ccc1O,inhibition,[6],12.3%
C[C@@H]1O[C@@H](O[C@@H]2[C@@H](O)[C@H](OCCc3ccc(O)c(O)c3)O[C@H](CO)[C@H]2OC(=O)/C=C/c2ccc(O)c(O)c2)[C@H](O)[C@H](O)[C@H]1O,inhibition,[2],25.8%
C[C@@H]1O[C@@H](O[C@@H]2[C@@H](O)[C@H](OCCc3ccc(O)c(O)c3)O[C@H](CO[C@@H]3O[C@H](CO)[C@@H](O)[C@H](O)[C@H]3O)[C@H]2OC(=O)/C=C/c2ccc(O)c(O)c2)[C@H](O[C@@H]2OC[C@@H](O)[C@@H](O)[C@@H]2O)[C@H](O)[C@H]1O,inhibition,[11],12.4%
O=c1cc(-c2ccc(O)c(O)c2)oc2cc(O[C@@H]3O[C@H](CO)[C@@H](O)[C@H](O)[C@H]3O)cc(O)c12,inhibition,[16],27.4%
COc1cc(-c2cc(=O)c3c(O)cc(O[C@@H]4O[C@H](COC(=O)/C=C/c5ccc(O)cc5)[C@@H](O)[C@H](OC(=O)/C=C/c5ccc(O)cc5)[C@H]4O)cc3o2)ccc1O,inhibition,[14],15.6%
C[C@@H]1O[C@@H](OC[C@H]2O[C@@H](Oc3c(-c4ccc(O)cc4)oc4cc(O)cc(O)c4c3=O)[C@H](O)[C@@H](O)[C@@H]2O)[C@H](O)[C@H](O)[C@H]1O,inhibition,[8],16.1%
COc1ccc(-c2cc(=O)c3c(OC)c(OC)c(OC)cc3o2)cc1,inhibition,[1],3.23%
COc1cc(/C=C/C(=O)O[C@H]2[C@H](O[C@H]3O[C@H](C)[C@@H](O)[C@H](O)[C@@H]3O)[C@@H](O)[C@H](OCCc3ccc(O)c(OC)c3)O[C@@H]2CO[C@H]2OCC(O)(CO)[C@@H]2O)ccc1O (stereo partly specified),inhibition,[15],12.7%
COc1cc(/C=C/C(=O)O[C@H]2[C@H](O[C@@H]3O[C@@H](C)[C@H](O)[C@@H](O)[C@H]3O[C@@H]3OC[C@@H](O)[C@@H](O)[C@@H]3O)[C@@H](O)[C@H](OCCc3ccc(O)c(OC)c3)O[C@@H]2CO)ccc1O,inhibition,[15],17.3%
COc1ccc(CCO[C@@H]2O[C@H](CO)[C@@H](OC(=O)/C=C/c3ccc(O)c(OC)c3)[C@H](O[C@@H]3O[C@@H](C)[C@H](O)[C@@H](O)[C@H]3O)[C@H]2O)cc1O,inhibition,[18],20.6%
COc1cc(/C=C/C(=O)O)ccc1O,inhibition,[4],6.68%
C[C@H]1O[C@H](O[C@@H]2[C@@H](O)[C@H](O)O[C@H](CO)[C@H]2OC(=O)/C=C/c2ccc(O)c(O)c2)[C@@H](O)[C@@H](O)[C@@H]1O,inhibition,[19],10.9%
COc1cc(-c2cc(=O)c3c(O)cc(O)cc3o2)ccc1O,inhibition,[20],16.4%
O=c1c(O)c(-c2ccc(O)c(O)c2)oc2cc(O)cc(O)c12,inhibition,[13],49.7%
O=c1cc(-c2ccc(O)cc2)oc2c(O)c(O)c(O)c(O)c12,inhibition,[3],5.21%
COc1ccc(CCO[C@@H]2O[C@H](CO)[C@@H](OC(=O)/C=C/c3ccc(O)c(OC)c3)[C@H](O[C@@H]3O[C@@H](C)[C@H](O)[C@@H](O)[C@H]3O[C@@H]3OC[C@@H](O)[C@@H](O)[C@@H]3O)[C@H]2O)cc1O,inhibition,[15],9.48%
